The target in one test is canine TRPM8 (Canis lupus familiaris, UniProt Q1A7N1). As to the kind of experiment: In Vitro Canine TRPM8 Functional Assay (intracellular Ca2+ fluorescence, icilin activation). Type of test: cell-based. The note with it: HEK293 cells stably expressing canine TRPM8; for IC50: icilin challenge at ~80% maximal response, eight-point dose-response, single determinations, read-out: IC50 (μM) @ 0.2; for % Inh @ 0.2 (μM) / inhibition at 0.2 µM: 0.2 μM compound, icilin challenge. The procedure:
The functional activity of compounds of the formula (I) was determined by measuring changes in intracellular calcium concentration using a Ca^2+-sensitive fluorescent dye. The changes in fluorescent signal were monitored by a fluorescence plate reader, either a FLIPR™ (Molecular Devices) or FDSS (Hamamatsu).
At 24 hrs prior to assay, HEK293 cells stably expressing canine TRPM8 were seeded in culture medium in black wall, clear-base poly-D-lysine coated 384-well plates (BD Biosciences, NJ, USA) and grown overnight in 5% CO2 at 37° C. On assay day, growth media was removed and cells were loaded with Calcium 3 Dye (Molecular Devices) for 35 min at 37° C., under 5% CO2 and then for 25 min at room temperature and atmosphere. Subsequently, cells were tested for agonist-induced increases in intracellular Ca^2+ levels using FLIPR™ or FDSS. Cells were challenged with a compound of the Formula (I) (at varying concentrations) and intracellular Ca^2+ was measured for 5 min prior to the addition of icilin to all wells to achieve a final concentration that produces approximately an 80% maximal response. EC50 or IC50 values for compounds of the present invention were determined from eight-point dose-response studies. Curves were generated using the average of quadruplicate wells for each data point.

In test [1] the test system is icilin-induced "wet-dog" shakes. As to the kind of experiment: Reversal of icilin-induced "wet-dog" shaking behavior in rats. Type of test: in vivo. The note with it: 10 mg/kg p.o., 1 h post-icilin, relative to WDS count prior to test compound dose. Here is the method:
Male Sprague Dawley rats (220-450 g, Charles River Labs, n=6-9/treatment) may be used to evaluate the ability of selected compounds of the formula (I) to block icilin-induced “wet-dog” shakes (WDS). Compounds of the formula (I) may be administered in an appropriate vehicle, such as hydroxypropyl-β-cyclodextrin (HPβCD), methocellulose, 10% Solutol, or H2O, or the like, by the appropriate route, i.p. or p.o., 30-120 minutes before icilin. Icilin may be administered in PEG-400 or 10% solutol/H2O, at 1.0 or 3.0 mg/kg, i.p. and spontaneous “wet-dog” shakes may be counted 10-20 minutes post-icilin.
Compounds of the present invention capable of inhibiting the onset of icilin-induced “wet-dog” shaking behavior may also be assessed for their ability to reverse an existing icilin-induced “wet-dog” shaking behavior. In this paradigm, icilin-induced shaking is counted for 10 minutes followed by administration of a compound of the present invention in a suitable vehicle such as hydroxypropyl methylcellulose, hydroxypropyl-β-cyclodextrin or 10% Solutol in water. The diminution of shaking behavior is represented as a percent inhibition relative to icilin-induced shakes in the absence of test compound administration, as described by the following formula: % Inhibition=[1−(WDS count following test compound dose/WDS count prior to test compound dose)]×100.

canine TRPM8, sequence (Q1A7N1 1-1104): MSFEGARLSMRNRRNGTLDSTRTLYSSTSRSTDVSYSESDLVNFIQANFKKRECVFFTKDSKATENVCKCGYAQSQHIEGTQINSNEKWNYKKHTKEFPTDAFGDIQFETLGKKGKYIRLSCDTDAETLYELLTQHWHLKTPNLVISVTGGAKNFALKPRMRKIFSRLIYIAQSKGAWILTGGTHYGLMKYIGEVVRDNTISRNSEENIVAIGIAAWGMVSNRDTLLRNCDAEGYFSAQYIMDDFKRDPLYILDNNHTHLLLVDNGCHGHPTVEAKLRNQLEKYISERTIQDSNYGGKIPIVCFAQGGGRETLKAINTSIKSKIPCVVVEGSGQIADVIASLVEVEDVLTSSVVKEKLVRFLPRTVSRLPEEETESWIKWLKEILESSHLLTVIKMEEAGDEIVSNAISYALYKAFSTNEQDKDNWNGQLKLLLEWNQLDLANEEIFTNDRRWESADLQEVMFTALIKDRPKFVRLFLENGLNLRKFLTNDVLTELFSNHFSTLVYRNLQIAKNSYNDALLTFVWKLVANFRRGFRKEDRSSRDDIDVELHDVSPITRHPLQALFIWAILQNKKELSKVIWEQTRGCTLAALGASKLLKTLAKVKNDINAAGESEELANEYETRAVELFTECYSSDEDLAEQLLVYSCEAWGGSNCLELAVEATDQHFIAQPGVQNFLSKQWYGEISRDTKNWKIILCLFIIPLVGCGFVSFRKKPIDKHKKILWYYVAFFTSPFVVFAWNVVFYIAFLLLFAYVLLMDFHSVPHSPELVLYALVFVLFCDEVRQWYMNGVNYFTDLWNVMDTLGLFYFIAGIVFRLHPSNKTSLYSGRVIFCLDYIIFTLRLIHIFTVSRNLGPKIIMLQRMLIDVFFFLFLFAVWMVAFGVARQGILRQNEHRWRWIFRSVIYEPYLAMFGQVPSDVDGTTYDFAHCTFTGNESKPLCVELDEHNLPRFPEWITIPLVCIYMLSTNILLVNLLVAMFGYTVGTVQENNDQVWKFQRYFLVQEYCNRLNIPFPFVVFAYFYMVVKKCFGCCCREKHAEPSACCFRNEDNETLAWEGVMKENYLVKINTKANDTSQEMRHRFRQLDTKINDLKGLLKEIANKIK

Take “4-(3-Methyl-butyl)-piperazine-1-sulfonic acid (3-methyl-benzo[b]thiophen-2-yl)-(4-trifluoromethoxy-benzyl)-sulfamoyl]-amide [Compound 5]”: at canine TRPM8, the 50% inhibitory concentration (IC50) is 0.071 µM.

As for “4-Isopropyl-piperazine-1-sulfonic acid (3-methyl-benzo[b]thiophen-2-yl)-(4-trifluoromethoxy-benzyl)-sulfamoyl]-amide [Compound 4]”, the IC50 on canine TRPM8 was 0.06 µM.

For the molecule “4-Methyl-piperazine-1-sulfonic acid (3-methyl-benzo[b]thiophen-2-yl)-(4-trifluoromethoxy-benzyl)-sulfamoyl]-amide [Compound 6]”, on canine TRPM8, the “% Inh @ 0.2 (μM)” value is recorded as 90% and the IC50 turned out to be 0.046 µM.

Consider `Cc1c(N(Cc2ccc(OC(F)(F)F)cc2)S(=O)(=O)N2CCCCC2)sc2ccccc12` [Compound 1, Piperidine-1-sulfonic acid (3-methyl-benzo[b]thiophen-2-yl)-(4-trifluoromethoxy-benzyl)-amide], for which, at canine TRPM8, the inhibition at 0.2 µM stood at 99% and the concentration for half-maximal inhibition (IC50) is 0.0036 µM.

Turning to `Cc1c(N(Cc2ccc(OC(F)(F)F)cc2)S(=O)(=O)N2CCOCC2)sc2ccccc12` [Compound 2, Morpholine-1-sulfonic acid (3-methyl-benzo[b]thiophen-2-yl)-(4-trifluoromethoxy-benzyl)-amide], on canine TRPM8, the “% Inh @ 0.2 (μM)” value is reported as 100% and the IC50 amounted to 0.0057 µM.

For the molecule `Cc1c(N(Cc2ccc(OC(F)(F)F)cc2)S(=O)(=O)NS(=O)(=O)N2CCNCC2)sc2ccccc12` [Compound 3], the “% Inh @ 0.2 (μM)” value on canine TRPM8 was 19%.

For the molecule `Cc1c(N(Cc2ccc(OC(F)(F)F)cc2)S(=O)(=O)N2CCN(CC(F)(F)F)CC2)sc2ccccc12` [Compound 7], on canine TRPM8, the “% Inh @ 0.2 (μM)” value stood at 100% and the IC50 amounted to 0.013 µM.

For `Cc1c(N(Cc2ccc(OC(F)(F)F)cc2)S(=O)(=O)NS(=O)(=O)N2CCC(N(C)C)CC2)sc2ccccc12` [Compound 8], the “% Inh @ 0.2 (μM)” value on canine TRPM8 was 36%.

`Cc1c(N(Cc2ccc(OC(F)(F)F)cc2)S(=O)(=O)NS(=O)(=O)N2CCN(N3CCCC3)CC2)sc2ccccc12` [Compound 9]: on canine TRPM8, the “% Inh @ 0.2 (μM)” value stood at 9%.

On to `Cc1c(N(Cc2ccc(OC(F)(F)F)cc2)S(=O)(=O)N2CCC(C(=O)O)CC2)sc2ccccc12` [Compound 10, 1-[(3-Methyl-benzo[b]thiophen-2-yl)-(4-trifluoromethoxy-benzyl)-sulfamoyl]-piperidine-4-carboxylic acid], for which, at canine TRPM8, the inhibition at 0.2 µM worked out at 101% and the IC50 amounted to 0.0046 µM. Also, in test [1], the “% Inhibition” value is recorded as 57%.

In the case of `Cc1c(N(Cc2ccc(OC(F)(F)F)cc2)S(=O)(=O)N2CCC(C(=O)N3CCN(C)CC3)CC2)sc2ccccc12` [Compound 11], the “% Inh @ 0.2 (μM)” value on canine TRPM8 was determined as 30%.

Regarding `Cc1c(N(Cc2ccc(OC(F)(F)F)cc2)S(=O)(=O)N2CCC(C(=O)NCCN(C)C)CC2)sc2ccccc12` [Compound 12, 1-[(3-Methyl-benzo[b]thiophen-2-yl)-(4-trifluoromethoxy-benzyl)-sulfamoyl]-piperidine-4-carboxylic acid (2-dimethylamino-ethyl)-amide], at canine TRPM8, the inhibition at 0.2 µM is 70% and the concentration for half-maximal inhibition (IC50) is 0.061 µM.

Take `Cc1c(N(Cc2ccc(F)c(C(F)(F)F)c2)S(=O)(=O)NCCCC(=O)O)sc2ccccc12` [Compound 13, N-(4-Fluoro-3-trifluoromethyl-benzyl)-N-(3-methyl-benzo[b]-thiophen-2-yl)-N′-(butyric acid)-sulfonamide]: on canine TRPM8, the “% Inh @ 0.2 (μM)” value is 72% and the concentration for half-maximal inhibition (IC50) was found to be 0.062 µM.

Consider `O=C(O)CNS(=O)(=O)N(Cc1ccc(F)c(C(F)(F)F)c1)c1sc2ccccc2c1Br` [Compound 14, N-(3-Bromo-benzo[b]thiophen-2-yl)-N-(4-fluoro-3-trifluorobenzyl)-(N-acetic acid)-sulfonamide], for which, on canine TRPM8, the “% Inh @ 0.2 (μM)” value worked out at 33%.

Turning to `O=C(O)CCCNS(=O)(=O)N(Cc1ccc(F)c(C(F)(F)F)c1)c1sc2ccccc2c1Br` [Compound 15, N-(3-Bromo-benzo[b]thiophen-2-yl)-N-(4-fluoro-3-trifluorobenzyl)-(N-butyric acid)-sulfonamide], on canine TRPM8, the “% Inh @ 0.2 (μM)” value was 101% and the half-maximal inhibitory concentration (IC50) worked out at 0.018 µM.

With `O=C(O)CCCCNS(=O)(=O)N(Cc1ccc(F)c(C(F)(F)F)c1)c1sc2ccccc2c1Br` [Compound 16], on canine TRPM8, the “% Inh @ 0.2 (μM)” value is reported as 101% and the half-inhibitory concentration (IC50) was 0.0085 µM.

The term IC50 denotes the midpoint of a concentration-inhibition curve. As usually defined, the inhibition is the change of the read-out against control, counted positive when it falls. As usually defined, the % Inhibition is how much of the control response was suppressed.

The values are drawn from patent US9233947B2, “Sulfamides as TRPM8 modulators” (Janssen Pharmaceutica, NV, priority 2008, dated 2016).
